Reference: PMC4447944 (The Journal of Biological Chemistry, 2015)
pIC50: −log10 of the molar value.

Assays:
hFLT3(ITD) = assay: KINOMEscan; format: binding, human
hMELK = molecular target: T1, hMELK (Homo sapiens, UniProt Q14680); assay: KINOMEscan; format: binding
T1 construct: purchased DiscoverX

hAMPK-alpha1 = molecular target: T2, hAMPK-alpha1 (Homo sapiens, UniProt Q13131); assay: KINOMEscan; format: binding
T2 construct: purchased DiscoverX

bacPKNB = molecular target: T3, bacPKNB (Mycobacterium tuberculosis, UniProt P9WI81); assay: KINOMEscan; format: binding
T3 construct: purchased DiscoverX

hCAMK4 = molecular target: T4, hCAMK4 (Homo sapiens, UniProt Q16566); assay: KINOMEscan; format: binding
T4 construct: purchased DiscoverX
T4 sequence (Q16566 whole entry): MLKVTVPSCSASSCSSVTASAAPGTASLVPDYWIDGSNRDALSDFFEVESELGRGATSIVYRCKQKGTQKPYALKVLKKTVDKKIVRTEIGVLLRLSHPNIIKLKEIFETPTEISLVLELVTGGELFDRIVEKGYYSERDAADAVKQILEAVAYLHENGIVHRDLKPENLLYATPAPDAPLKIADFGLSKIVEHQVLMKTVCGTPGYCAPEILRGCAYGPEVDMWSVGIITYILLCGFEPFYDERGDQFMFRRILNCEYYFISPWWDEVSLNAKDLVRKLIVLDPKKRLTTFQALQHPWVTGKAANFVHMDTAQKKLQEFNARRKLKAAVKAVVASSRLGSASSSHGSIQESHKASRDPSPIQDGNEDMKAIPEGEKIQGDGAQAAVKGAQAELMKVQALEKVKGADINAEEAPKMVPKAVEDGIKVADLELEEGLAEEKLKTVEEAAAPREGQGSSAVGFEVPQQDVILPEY

hCSNK1G2 = molecular target: T5, hCSNK1G2 (Homo sapiens, UniProt P78368); assay: KINOMEscan; format: binding
T5 construct: purchased DiscoverX (KINOMEscan platform)

hLRRK2(G2019S) = molecular target: T6, hLRRK2(G2019S) (Homo sapiens, UniProt Q5S007, G2019S); assay: KINOMEscan; format: binding
T6 construct: purchased DiscoverX (KINOMEscan platform)

hTNK1 = molecular target: T7, hTNK1 (Homo sapiens, UniProt Q13470); assay: KINOMEscan; format: binding
T7 construct: purchased DiscoverX

hDLK = molecular target: T8, hDLK (Homo sapiens, UniProt Q12852); assay: KINOMEscan; format: binding
T8 construct: purchased DiscoverX (KINOMEscan platform)

hADCK4 = molecular target: T9, hADCK4 (Homo sapiens, UniProt Q96D53); assay: KINOMEscan; format: binding
T9 construct: purchased DiscoverX

hDCAMKL1 = molecular target: T10, hDCAMKL1 (Homo sapiens, UniProt O15075); assay: KINOMEscan; format: binding
T10 construct: purchased DiscoverX (KINOMEscan platform)
T10 sequence (O15075 whole entry): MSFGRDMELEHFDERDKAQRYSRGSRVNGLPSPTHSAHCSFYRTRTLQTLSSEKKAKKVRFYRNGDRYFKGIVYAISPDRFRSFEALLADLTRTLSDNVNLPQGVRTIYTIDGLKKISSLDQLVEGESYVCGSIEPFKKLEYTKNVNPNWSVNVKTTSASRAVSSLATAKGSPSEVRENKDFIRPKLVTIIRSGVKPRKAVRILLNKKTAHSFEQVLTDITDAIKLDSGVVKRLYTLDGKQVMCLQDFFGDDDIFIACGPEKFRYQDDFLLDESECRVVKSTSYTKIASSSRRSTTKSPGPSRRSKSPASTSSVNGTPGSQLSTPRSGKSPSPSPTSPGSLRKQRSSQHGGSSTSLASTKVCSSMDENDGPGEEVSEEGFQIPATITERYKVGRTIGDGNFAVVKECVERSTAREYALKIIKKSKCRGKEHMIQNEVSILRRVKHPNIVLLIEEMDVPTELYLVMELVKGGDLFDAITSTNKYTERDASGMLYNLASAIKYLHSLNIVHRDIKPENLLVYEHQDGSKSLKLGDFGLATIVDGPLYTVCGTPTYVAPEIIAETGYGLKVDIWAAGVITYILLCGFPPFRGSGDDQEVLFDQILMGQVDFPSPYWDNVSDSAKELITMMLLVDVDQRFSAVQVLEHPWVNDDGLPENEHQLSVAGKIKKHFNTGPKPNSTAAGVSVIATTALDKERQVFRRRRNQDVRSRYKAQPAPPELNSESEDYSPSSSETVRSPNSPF

hBMX = molecular target: T11, hBMX (Homo sapiens, UniProt P51813); assay: KINOMEscan; format: binding
T11 construct: purchased DiscoverX

hCHEK2 = molecular target: T12, hCHEK2 (Homo sapiens, UniProt O96017); assay: KINOMEscan; format: binding
T12 construct: purchased DiscoverX

hARK5 = molecular target: T13, hARK5 (Homo sapiens, UniProt O60285); assay: KINOMEscan; format: binding
T13 construct: purchased DiscoverX

hLATS2 = molecular target: T14, hLATS2 (Homo sapiens, UniProt Q9NRM7); assay: KINOMEscan; format: binding
T14 construct: purchased DiscoverX (KINOMEscan platform)

hDYRK1A = molecular target: T15, hDYRK1A (Homo sapiens, UniProt Q13627); assay: KINOMEscan; format: binding
T15 construct: purchased DiscoverX

hCAMK2A = molecular target: T16, hCAMK2A (Homo sapiens, UniProt Q9UQM7); assay: KINOMEscan; format: binding
T16 construct: purchased DiscoverX

hDMPK = molecular target: T17, hDMPK (Homo sapiens, UniProt Q09013); assay: KINOMEscan; format: binding
T17 construct: purchased DiscoverX (KINOMEscan platform)
T17 sequence (Q09013 whole entry): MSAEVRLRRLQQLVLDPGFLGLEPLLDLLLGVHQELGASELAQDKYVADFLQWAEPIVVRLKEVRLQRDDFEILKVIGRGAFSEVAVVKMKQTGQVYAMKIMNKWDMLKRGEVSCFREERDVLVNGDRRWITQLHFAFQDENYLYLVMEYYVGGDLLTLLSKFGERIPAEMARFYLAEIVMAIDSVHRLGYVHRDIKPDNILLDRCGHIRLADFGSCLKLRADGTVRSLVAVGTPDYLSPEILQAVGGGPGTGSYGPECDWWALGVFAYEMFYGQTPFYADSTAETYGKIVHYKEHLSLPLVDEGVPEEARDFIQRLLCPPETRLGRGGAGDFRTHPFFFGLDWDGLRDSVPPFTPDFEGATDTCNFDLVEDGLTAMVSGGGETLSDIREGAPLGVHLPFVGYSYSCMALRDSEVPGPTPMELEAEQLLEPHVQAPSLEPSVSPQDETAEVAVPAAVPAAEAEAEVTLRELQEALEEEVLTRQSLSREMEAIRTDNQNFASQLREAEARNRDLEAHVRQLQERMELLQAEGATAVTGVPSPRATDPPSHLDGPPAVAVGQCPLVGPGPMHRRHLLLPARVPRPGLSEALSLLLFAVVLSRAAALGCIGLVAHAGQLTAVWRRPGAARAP

hRSK3(Kin.Dom.2-C-term) = molecular target: T18, hRSK3(Kin.Dom.2-C-term) (Homo sapiens, UniProt Q15349); assay: KINOMEscan; format: binding
T18 construct: hRSK3(Kin.Dom.2-C-term); purchased DiscoverX (KINOMEscan platform)

hADRβ2 = hADRβ2 (Homo sapiens, UniProt P07550); assay: cAMP Agonist (Eurofins-CEREP); settings: @ 10 μM
hSGK = molecular target: T19, hSGK (Homo sapiens, UniProt O00141); assay: KINOMEscan; format: binding
T19 construct: purchased DiscoverX (KINOMEscan platform)
T19 sequence (O00141 whole entry): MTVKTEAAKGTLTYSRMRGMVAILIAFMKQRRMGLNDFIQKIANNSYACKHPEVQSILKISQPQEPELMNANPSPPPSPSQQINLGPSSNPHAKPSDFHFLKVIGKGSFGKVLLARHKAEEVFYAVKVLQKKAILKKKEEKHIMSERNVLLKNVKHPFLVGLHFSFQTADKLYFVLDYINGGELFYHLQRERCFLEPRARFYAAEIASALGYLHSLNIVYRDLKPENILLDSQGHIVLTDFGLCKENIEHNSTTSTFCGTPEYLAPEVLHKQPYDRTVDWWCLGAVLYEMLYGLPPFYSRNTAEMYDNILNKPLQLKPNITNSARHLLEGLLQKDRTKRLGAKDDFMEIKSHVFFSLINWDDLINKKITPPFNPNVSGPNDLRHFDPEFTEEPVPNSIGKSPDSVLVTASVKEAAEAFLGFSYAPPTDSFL

hEGFR(E746-A750del) = molecular target: T20, hEGFR(E746-A750del) (Homo sapiens, UniProt P00533, DEL746-750); assay: KINOMEscan; format: binding
T20 construct: purchased DiscoverX

hRSK1(Kin.Dom.1-N-term) = molecular target: T21, hRSK1(Kin.Dom.1-N-term) (Homo sapiens, UniProt Q15418); assay: KINOMEscan; format: binding
T21 construct: hRSK1(Kin.Dom.1-N-term); purchased DiscoverX (KINOMEscan platform)
T21 sequence (Q15418 62-321 limits assumed): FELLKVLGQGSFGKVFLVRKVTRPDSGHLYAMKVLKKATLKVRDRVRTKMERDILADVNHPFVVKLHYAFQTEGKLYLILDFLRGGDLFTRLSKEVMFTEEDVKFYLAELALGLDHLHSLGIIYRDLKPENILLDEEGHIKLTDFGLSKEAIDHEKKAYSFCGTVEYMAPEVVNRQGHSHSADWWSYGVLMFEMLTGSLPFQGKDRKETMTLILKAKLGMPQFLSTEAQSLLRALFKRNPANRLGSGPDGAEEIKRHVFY

hFGFR1 = molecular target: T22, hFGFR1 (Homo sapiens, UniProt P11362); assay: KINOMEscan; format: binding
T22 construct: purchased DiscoverX

hBMPR1A = molecular target: T23, hBMPR1A (Homo sapiens, UniProt P36894); assay: KINOMEscan; format: binding
T23 construct: purchased DiscoverX

hRSK2(Kin.Dom.1-N-term) = molecular target: T24, hRSK2(Kin.Dom.1-N-term) (Homo sapiens, UniProt P51812); assay: KINOMEscan; format: binding
T24 construct: hRSK2(Kin.Dom.1-N-term); purchased DiscoverX (KINOMEscan platform)
T24 sequence (P51812 68-327 limits assumed): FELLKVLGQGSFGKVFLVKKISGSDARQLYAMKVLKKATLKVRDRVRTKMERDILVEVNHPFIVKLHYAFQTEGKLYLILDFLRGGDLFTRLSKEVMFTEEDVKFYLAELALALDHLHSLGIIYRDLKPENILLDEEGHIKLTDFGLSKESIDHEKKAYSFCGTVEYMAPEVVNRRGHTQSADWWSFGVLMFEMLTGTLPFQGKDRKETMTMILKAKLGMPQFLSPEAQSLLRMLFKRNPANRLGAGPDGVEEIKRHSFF

hEGFR(L858R) = molecular target: T25, hEGFR(L858R) (Homo sapiens, UniProt P00533, L858R); assay: KINOMEscan; format: binding
T25 construct: purchased DiscoverX

hERN1 = molecular target: T26, hERN1 (Homo sapiens, UniProt O75460); assay: KINOMEscan; format: binding
T26 construct: purchased DiscoverX
T26 sequence (O75460 19-977): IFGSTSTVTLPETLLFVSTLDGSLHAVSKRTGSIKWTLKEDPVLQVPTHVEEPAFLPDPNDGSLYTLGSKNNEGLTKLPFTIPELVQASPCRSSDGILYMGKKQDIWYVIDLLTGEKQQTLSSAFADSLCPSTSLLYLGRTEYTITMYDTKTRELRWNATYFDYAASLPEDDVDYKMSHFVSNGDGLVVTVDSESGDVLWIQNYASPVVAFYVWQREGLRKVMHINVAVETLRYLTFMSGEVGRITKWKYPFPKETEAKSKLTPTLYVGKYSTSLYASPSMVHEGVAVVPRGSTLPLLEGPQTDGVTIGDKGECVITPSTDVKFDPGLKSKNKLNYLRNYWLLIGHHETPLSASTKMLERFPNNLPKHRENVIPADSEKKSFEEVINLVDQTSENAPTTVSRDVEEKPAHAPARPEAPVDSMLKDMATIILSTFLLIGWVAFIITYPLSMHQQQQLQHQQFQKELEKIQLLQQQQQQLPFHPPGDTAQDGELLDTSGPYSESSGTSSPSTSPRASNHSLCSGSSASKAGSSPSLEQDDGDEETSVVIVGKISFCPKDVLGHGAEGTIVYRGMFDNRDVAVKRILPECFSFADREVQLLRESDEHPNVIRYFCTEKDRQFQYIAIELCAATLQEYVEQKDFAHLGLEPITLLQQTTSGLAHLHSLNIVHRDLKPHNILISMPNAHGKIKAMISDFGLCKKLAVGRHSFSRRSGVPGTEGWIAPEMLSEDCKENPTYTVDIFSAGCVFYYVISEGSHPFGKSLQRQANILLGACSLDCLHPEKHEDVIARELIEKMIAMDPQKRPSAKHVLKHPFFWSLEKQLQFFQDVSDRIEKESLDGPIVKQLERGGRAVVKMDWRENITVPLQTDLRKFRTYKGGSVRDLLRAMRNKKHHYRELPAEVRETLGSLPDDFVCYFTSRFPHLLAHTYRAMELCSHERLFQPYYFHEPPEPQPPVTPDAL

[1] = molecular target: T27, hRPS6KA5(Kin.Dom.2-C-term) (Homo sapiens, UniProt O75582); assay: KINOMEscan; format: binding
T27 construct: hRPS6KA5(Kin.Dom.2-C-term); purchased DiscoverX (KINOMEscan platform)

hABL1(pH396P) = molecular target: T28, hABL1(pH396P) (Homo sapiens, UniProt P00519, H396P); assay: KINOMEscan; format: binding
T28 construct: purchased DiscoverX (KINOMEscan platform)

hFGFR3(G697C) = molecular target: T29, hFGFR3(G697C) (Homo sapiens, UniProt P22607, G697C); assay: KINOMEscan; format: binding
T29 construct: purchased DiscoverX

hROS1 = molecular target: T30, hROS1 (Homo sapiens, UniProt P08922); assay: KINOMEscan; format: binding
T30 construct: purchased DiscoverX (KINOMEscan platform)

hADORA3 = molecular target: T31, hADORA3 (Homo sapiens, UniProt P0DMS8); assay: β-arrestin Antagonist (Eurofins-CEREP); settings: read-out: % Effect, Inhibition
T31 sequence (P0DMS8 1-318): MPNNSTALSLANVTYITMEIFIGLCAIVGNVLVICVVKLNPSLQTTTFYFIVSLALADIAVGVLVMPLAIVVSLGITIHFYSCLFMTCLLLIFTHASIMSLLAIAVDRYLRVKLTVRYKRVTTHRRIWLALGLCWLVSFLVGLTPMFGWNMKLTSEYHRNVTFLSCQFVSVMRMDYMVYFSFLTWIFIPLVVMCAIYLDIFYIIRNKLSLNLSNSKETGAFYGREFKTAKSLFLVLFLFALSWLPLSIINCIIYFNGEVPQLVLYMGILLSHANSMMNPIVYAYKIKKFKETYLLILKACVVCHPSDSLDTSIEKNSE

hGRK1 = molecular target: T32, hGRK1 (Homo sapiens, UniProt Q15835); assay: KINOMEscan; format: binding
T32 construct: purchased DiscoverX

hDAPK1 = molecular target: T33, hDAPK1 (Homo sapiens, UniProt P53355); assay: KINOMEscan; format: binding
T33 construct: purchased DiscoverX (KINOMEscan platform)

T2 sequence (Q13131 whole entry): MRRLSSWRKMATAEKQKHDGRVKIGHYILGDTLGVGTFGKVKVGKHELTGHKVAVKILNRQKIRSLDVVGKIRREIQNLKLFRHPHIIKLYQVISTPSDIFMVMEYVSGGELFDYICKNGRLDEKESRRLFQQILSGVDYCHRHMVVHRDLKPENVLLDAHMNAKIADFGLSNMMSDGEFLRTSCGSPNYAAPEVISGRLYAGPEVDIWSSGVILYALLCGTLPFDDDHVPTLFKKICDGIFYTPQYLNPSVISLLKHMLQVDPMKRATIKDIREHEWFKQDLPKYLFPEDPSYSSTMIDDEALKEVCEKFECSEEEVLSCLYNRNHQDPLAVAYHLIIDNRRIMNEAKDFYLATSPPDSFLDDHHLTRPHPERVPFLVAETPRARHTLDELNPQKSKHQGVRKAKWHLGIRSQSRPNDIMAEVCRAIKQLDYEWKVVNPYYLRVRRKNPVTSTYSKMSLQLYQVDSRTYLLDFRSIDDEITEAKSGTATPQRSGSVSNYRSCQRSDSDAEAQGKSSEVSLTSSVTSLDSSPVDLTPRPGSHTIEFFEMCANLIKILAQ
T1 sequence (Q14680 whole entry): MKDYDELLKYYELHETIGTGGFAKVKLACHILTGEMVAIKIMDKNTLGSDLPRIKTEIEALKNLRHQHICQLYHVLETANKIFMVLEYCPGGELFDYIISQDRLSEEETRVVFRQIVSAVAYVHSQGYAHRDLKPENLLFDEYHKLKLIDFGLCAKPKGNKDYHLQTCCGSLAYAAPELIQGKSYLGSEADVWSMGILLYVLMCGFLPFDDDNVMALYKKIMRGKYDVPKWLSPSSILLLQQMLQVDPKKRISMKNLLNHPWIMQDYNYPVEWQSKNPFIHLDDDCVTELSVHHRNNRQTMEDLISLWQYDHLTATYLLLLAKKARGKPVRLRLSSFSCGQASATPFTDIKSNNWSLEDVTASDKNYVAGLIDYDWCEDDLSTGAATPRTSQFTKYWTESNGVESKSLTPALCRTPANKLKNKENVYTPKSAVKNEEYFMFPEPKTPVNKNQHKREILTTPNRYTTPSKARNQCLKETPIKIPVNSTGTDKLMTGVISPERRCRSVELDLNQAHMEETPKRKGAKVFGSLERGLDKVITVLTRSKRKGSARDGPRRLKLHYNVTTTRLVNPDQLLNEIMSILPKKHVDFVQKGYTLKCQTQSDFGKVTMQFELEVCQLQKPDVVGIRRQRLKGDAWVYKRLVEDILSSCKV

## Cc1cn(CCN2CCN(c3ccccc3-c3cc(C#N)cc(C(=O)NCCCN4CCCC4)c3)CC2)c2ccccc12 [LLY-507, 3-cyano-5-{2-[4-[2-(3-methylindol-1-yl)ethyl]piperazin-1-yl]-phenyl}-N-[(3-pyrrolidin-1-yl)propyl]benzamide]
hFLT3(ITD)
  pIC50: < 4.70
hMELK
  pIC50: < 4.70
hAMPK-alpha1
  pIC50: < 4.70
bacPKNB
  pIC50: < 4.70
hCAMK4
  pIC50: < 4.70
hCSNK1G2
  pIC50: < 4.70
hLRRK2(G2019S)
  pIC50: < 4.70
hTNK1
  pIC50: < 4.70
hDLK
  pIC50: < 4.70
hADCK4
  pIC50: < 4.70
hDCAMKL1
  pIC50: < 4.70
hBMX
  pIC50: < 4.70
hCHEK2
  pIC50: < 4.70
hARK5
  pIC50: < 4.70
hLATS2
  pIC50: < 4.70
hDYRK1A
  pIC50: < 4.70
hCAMK2A
  pIC50: < 4.70
hDMPK
  pIC50: < 4.70
hRSK3(Kin.Dom.2-C-term)
  pIC50: < 4.70
hADRβ2
  % Effect, Stimulation: 0.1%
hSGK
  pIC50: < 4.70
hEGFR(E746-A750del)
  pIC50: < 4.70
hRSK1(Kin.Dom.1-N-term)
  pIC50: < 4.70
hFGFR1
  pIC50: < 4.70
hBMPR1A
  pIC50: < 4.70
hRSK2(Kin.Dom.1-N-term)
  pIC50: < 4.70
hEGFR(L858R)
  pIC50: < 4.70
hERN1
  pIC50: < 4.70
[1]
  pIC50: < 4.70
hABL1(pH396P)
  pIC50: < 4.70
hFGFR3(G697C)
  pIC50: < 4.70
hROS1
  pIC50: < 4.70
hADORA3
  inhibition at 10 µM: -38.3%
hGRK1
  pIC50: < 4.70
hDAPK1
  pIC50: < 4.70
